Experimental data from patent US10072006B2 (MUTABILIS, priority 2015, dated 2018).
pIC50: −log10 of the molar value. Where a name gives a salt, the structure may show the parent alone. Read-outs that look alike come from different tables or passages of the source.

How the values were obtained:
[1] = test system: E. coli 190317 (TEM-1, SHV-12, CTX-M-15, OXA-1); experiment: microbe, parasite or virus in culture; type: cell-based
Protocol: (§1) Briefly, compounds alone according to the invention were prepared in DMSO and spotted (2 μL each) on sterile polystyrene plates (Corning, 3788). […] Microplates were incubated for 16-20 h at 35° C. in ambient air. The MIC of the compounds was defined as the lowest concentration of said compounds that prevented bacterial growth as read by visual inspection.

[2] = test system: E. cloacae P99 (Derepressed ampC); experiment: MIC of compounds and synergy with ceftazidime (broth microdilution); type: cell-based; details: strain P99 (E. cloacae); for MIC, combination of CAZ and compounds of the invention: MIC of ceftazidime with compound fixed at 4 μg/mL; for MIC: Enterobacter cloacae, 18 h, read-out: MIC compounds of the invention alone
Protocol: as §1

[3] = test system: P. aeruginosa CIP107051 (TEM-24); experiment: as above; type: cell-based; details: for MIC, combination of CAZ and compounds of the invention: MIC of ceftazidime with compound fixed at 4 μg/mL; for MIC: Pseudomonas aeruginosa
Protocol: as §1

[4] = test system: P. aeruginosa CIP105250 (OXA-15); experiment: as above; type: cell-based; details: for MIC, combination of CAZ and compounds of the invention: MIC of ceftazidime with compound fixed at 4 μg/mL; for MIC: Pseudomonas aeruginosa
Protocol: as §1

[5] = test system: K. pneumoniae BAA-1898 (TEM-1, SHV-11, SHV-12, KPC-2); experiment: as above; type: cell-based; details: for MIC, combination of CAZ and compounds of the invention: MIC of ceftazidime with compound fixed at 4 μg/mL; for MIC: Klebsiella pneumoniae
Protocol: as §1

E. coli RGN238 (OXA-1) = experiment: as above; type: cell-based; details: for MIC: Escherichia coli
Protocol: as §1

[6] = test system: E. coli 131119 (TEM-1, OXA-48); experiment: as above; type: cell-based; details: for MIC: Escherichia coli
Protocol: as §1

[7] = test system: K. pneumoniae 6299 (TEM-1, SHV-11, OXA-163); experiment: as above; type: cell-based; details: for MIC, combination of CAZ and compounds of the invention: MIC of ceftazidime with compound fixed at 4 μg/mL; for MIC: Klebsiella pneumoniae
Protocol: as §1

[8] = test system: P. aeruginosa UFR35 (OXA-23); experiment: as above; type: cell-based; details: for MIC: Pseudomonas aeruginosa
Protocol: as §1

[9] = test system: E. coli UFR74 (SHV-1, DHA-1); experiment: as above; type: cell-based; details: for MIC: Escherichia coli
Protocol: as §1

[10] = test system: K. pneumoniae UFR77 (CMY-2); experiment: as above; type: cell-based; details: for MIC: Klebsiella pneumoniae
Protocol: as §1

[11] = test system: P. aeruginosa UFR92 (Derepressed ampC, OprD-); experiment: as above; type: cell-based; details: Pseudomonas aeruginosa, read-out: MIC of CAZ
Protocol: as §1

[12] = test system: P. aeruginosa UFR90 (Derepressed ampC, OprD-); experiment: as above; type: cell-based; details: Pseudomonas aeruginosa, read-out: MIC of CAZ
Protocol: as §1

[13] = test system: P. aeruginosa UFR48 (VIM-2); experiment: as above; type: cell-based; details: for MIC: Pseudomonas aeruginosa
Protocol: as §1

[14] = test system: E. coli UFR52 (TEM-1, SHV-12, IMP-8); experiment: as above; type: cell-based; details: strain UFR52 (E. coli)
Protocol: as §1

[15] = test system: E. coli UFR18 (CTX-M-15, OXA-204); experiment: as above; type: cell-based; details: strain UFR18 (E. coli)
Protocol: as §1

[16] = test system: K. pneumoniae UFR24 (TEM-1, SHV-2, SHV-11, OXA-1, OXA-48, OXA-47); experiment: as above; type: cell-based; details: strain UFR24 (K. pneumoniae)
Protocol: as §1

[17] = test system: P. aeruginosa UFR59 (IMP-29); experiment: as above; type: cell-based; details: strain UFR59 (P. aeruginosa)
Protocol: as §1

[18] = test system: E. cloacae UFR38 (CTX-M-15, NDM-1); experiment: as above; type: cell-based; details: strain UFR38 (E. cloacae)
Protocol: as §1

[19] = test system: P. aeruginosa UFR47 (VIM-1); experiment: as above; type: cell-based; details: strain UFR47 (P. aeruginosa)
Protocol: as §1

[20] = test system: E. coli UFR32 (TEM-1, VEB-1, OXA-10); experiment: as above; type: cell-based; details: strain UFR32 (E. coli)
Protocol: as §1

[21] = test system: C. murliniae 210102 (VIM-4); experiment: as above; type: cell-based; details: strain 210102 (C. murliniae)
Protocol: as §1

[22] = test system: E. coli UFR61O (TEM-1, KPC-2); experiment: as above; type: cell-based
Protocol: as §1

TEM-1 = molecular target: T1, TEM-1 (Escherichia coli, UniProt P62593); experiment: β-lactamase inhibitory activity, determination of IC50 (nitrocefin hydrolysis); type: biochemical; details: class (A), 30 min pre-incubation
T1 construct: made in house; host or cells: E. coli
T1 sequence (P62593 24-286 limits assumed): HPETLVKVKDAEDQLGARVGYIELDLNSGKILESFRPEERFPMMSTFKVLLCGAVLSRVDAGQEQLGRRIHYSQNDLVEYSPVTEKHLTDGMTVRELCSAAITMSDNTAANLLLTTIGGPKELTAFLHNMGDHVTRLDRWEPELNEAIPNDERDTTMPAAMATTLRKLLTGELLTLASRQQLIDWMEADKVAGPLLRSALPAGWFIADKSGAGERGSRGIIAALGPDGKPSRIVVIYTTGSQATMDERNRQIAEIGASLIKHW

[23] = strain CIP107051 (P. aeruginosa)
[24] = strain CIP105250 (P. aeruginosa)
[25] = strain BAA-1898 (K. pneumoniae)
[26] = Escherichia coli, 18 h, read-out: MIC compounds of the invention alone
[27] = 18 h, strain CIP107051 (P. aeruginosa), read-out: MIC compounds of the invention alone
[28] = 18 h, strain CIP105250 (P. aeruginosa), read-out: MIC compounds of the invention alone
[29] = BAA1898, strain BAA-1898 (K. pneumoniae), read-out: MIC compounds of the invention alone
[30] = 18 h, strain RGN238 (E. coli), read-out: MIC compounds of the invention alone
[31] = 18 h, strain 131119 (E. coli), read-out: MIC compounds of the invention alone
[32] = 18 h, strain 6299 (K. pneumoniae), read-out: MIC compounds of the invention alone
[33] = MIC of ceftazidime with compound fixed at 4 μg/mL
[34] = Pseudomonas aeruginosa, 18 h, read-out: MIC compounds of the invention alone

COC[C@H]1C=C(c2cnco2)[C@@H]2CN1C(=O)N2OS(=O)(=O)[O-].[Na+] (relative stereo) [Example 4]
MIC, combination of CAZ and compounds of the invention ([1]; MIC of ceftazidime with compound fixed at 4 μg/mL, strain 190317 (E. coli)): 4 µg/mL
MIC compounds of the invention alone ([1]; strain 190317 (E. coli)): >32 µg/mL
MIC, combination of CAZ and compounds of the invention [2]: 64 µg/mL
MIC compounds of the invention alone [2]: >32 µg/mL
MIC, combination of CAZ and compounds of the invention [3, 23]: 64 µg/mL
MIC compounds of the invention alone [3, 23]: >32 µg/mL
MIC, combination of CAZ and compounds of the invention [4, 24]: 128 µg/mL
MIC compounds of the invention alone [4, 24]: >32 µg/mL
MIC, combination of CAZ and compounds of the invention [5, 25]: 64 µg/mL
MIC compounds of the invention alone [5, 25]: >32 µg/mL
MIC compounds of the invention alone (E. coli RGN238 (OXA-1); strain RGN238 (E. coli)): >32 µg/mL
MIC compounds of the invention alone ([6]; strain 131119 (E. coli)): >32 µg/mL
MIC, combination of CAZ and compounds of the invention ([7]; strain 6299 (K. pneumoniae)): 128 µg/mL
MIC compounds of the invention alone ([7]; strain 6299 (K. pneumoniae)): >32 µg/mL

CC(C)(O/N=C(\C(=O)N[C@@H]1C(=O)N2C(C(=O)[O-])=C(C[n+]3ccccc3)CS[C@H]12)c1csc(N)n1)C(=O)O [CAZ, ceftazidime, reference compound]
MIC ([8]; read-out: MIC of CAZ): 2 µg/mL
MIC ([3]; CIP107051, read-out: MIC of CAZ): 256 µg/mL
MIC ([9]; read-out: MIC of CAZ): 64 µg/mL
MIC ([10]; read-out: MIC of CAZ): 64 µg/mL
MIC ([4]; CIP105250, read-out: MIC of CAZ): 256 µg/mL
MIC ([5]; BAA1898, read-out: MIC of CAZ): 256 µg/mL
MIC (E. coli RGN238 (OXA-1); read-out: MIC of CAZ): 0.5 µg/mL
MIC [11]: 32 µg/mL
MIC ([6]; read-out: MIC of CAZ): 0.5 µg/mL
MIC [12]: 64 µg/mL
MIC ([13]; read-out: MIC of CAZ): 256 µg/mL
MIC ([7]; read-out: MIC of CAZ): 256 µg/mL

N=C(N)NC[C@@H]1C(c2nccs2)=C[C@@H]2CN1C(=O)N2OS(=O)(=O)O [Example 7, [(2S,5R)-2-(guanidinomethyl)-7-oxo-3-thiazol-2-yl-1,6-diazabicyclo[3.2.1]oct-3-en-6-yl] hydrogen sulfate]
MIC [1, 26]: 0.063 µg/mL
MIC [2]: 0.031 µg/mL
MIC, combination of CAZ and compounds of the invention [2]: <0.125 µg/mL
MIC, combination of CAZ and compounds of the invention [3, 23]: 1 µg/mL
MIC [3, 27]: 8 µg/mL
MIC, combination of CAZ and compounds of the invention [4, 24]: 32 µg/mL
MIC [4, 28]: 32 µg/mL
MIC [5, 29]: > 32 µg/mL
MIC, combination of CAZ and compounds of the invention [5, 25]: ≤0.125 µg/mL
MIC (E. coli RGN238 (OXA-1); [30]): 16 µg/mL
MIC [6, 31]: 0.031 µg/mL
MIC [7, 32]: > 32 µg/mL
MIC, combination of CAZ and compounds of the invention ([7]; strain 6299 (K. pneumoniae)): 2 µg/mL

NC[C@@H]1C=C(c2cnco2)[C@@H]2CN1C(=O)N2OS(=O)(=O)O (relative stereo) [Example 1, Sodium and 2,2,2-trifluoroacetate [trans-2-(azaniumylmethyl)-4-oxazol-5-yl-7-oxo-1,6-diazabicyclo[3.2.1]oct-3-en-6-yl] sulfate]
MIC, combination of CAZ and compounds of the invention ([8]; MIC of ceftazidime with compound fixed at 4 μg/mL, strain UFR35 (P. aeruginosa)): <0.25 µg/mL
MIC ([8]; 18 h, strain UFR35 (P. aeruginosa), read-out: MIC compounds of the invention alone): 1 µg/mL
MIC [2]: 0.031 µg/mL
MIC, combination of CAZ and compounds of the invention [2]: <0.25 µg/mL
MIC, combination of CAZ and compounds of the invention [3, 23]: <0.25 µg/mL
MIC [3, 27]: 2 µg/mL
MIC ([9]; 18 h, strain UFR74 (E. coli), read-out: MIC compounds of the invention alone): > 32 µg/mL
MIC, combination of CAZ and compounds of the invention ([9]; MIC of ceftazidime with compound fixed at 4 μg/mL, strain UFR74 (E. coli)): 4 µg/mL
MIC ([10]; 18 h, strain UFR77 (K. pneumoniae), read-out: MIC compounds of the invention alone): > 32 µg/mL
MIC, combination of CAZ and compounds of the invention ([10]; MIC of ceftazidime with compound fixed at 4 μg/mL, strain UFR77 (K. pneumoniae)): 2 µg/mL
MIC, combination of CAZ and compounds of the invention [4, 24]: ≤0.125 µg/mL
MIC [4, 28]: > 32 µg/mL
MIC [5, 29]: > 32 µg/mL
MIC, combination of CAZ and compounds of the invention [5, 25]: 0.5 µg/mL
MIC (E. coli RGN238 (OXA-1); [30]): > 32 µg/mL
MIC, combination of CAZ and compounds of the invention (E. coli RGN238 (OXA-1); MIC of ceftazidime with compound fixed at 4 μg/mL, strain RGN238 (E. coli)): ≤0.125 µg/mL
MIC [14, 26]: 2 µg/mL
MIC, combination of CAZ and compounds of the invention [14, 33]: <0.25 µg/mL
MIC [6, 31]: 32 µg/mL
MIC, combination of CAZ and compounds of the invention ([6]; MIC of ceftazidime with compound fixed at 4 μg/mL, strain 131119 (E. coli)): <0.25 µg/mL
MIC [15, 26]: 0.031 µg/mL
MIC, combination of CAZ and compounds of the invention [15, 33]: <0.25 µg/mL
MIC ([16]; Klebsiella pneumoniae, 18 h, read-out: MIC compounds of the invention alone): > 32 µg/mL
MIC, combination of CAZ and compounds of the invention [16, 33]: 4 µg/mL
MIC, combination of CAZ and compounds of the invention [17, 33]: <0.25 µg/mL
MIC [17, 34]: 8 µg/mL
MIC ([18]; Enterobacter cloacae, 18 h, read-out: MIC compounds of the invention alone): ≤ 0.016 µg/mL
MIC, combination of CAZ and compounds of the invention [18, 33]: <0.25 µg/mL
MIC, combination of CAZ and compounds of the invention [19, 33]: <0.25 µg/mL
MIC [19, 34]: 2 µg/mL
MIC, combination of CAZ and compounds of the invention ([13]; MIC of ceftazidime with compound fixed at 4 μg/mL, strain UFR48 (P. aeruginosa)): <0.25 µg/mL
MIC ([13]; 18 h, strain UFR48 (P. aeruginosa), read-out: MIC compounds of the invention alone): 4 µg/mL
MIC [20, 26]: 0.031 µg/mL
MIC, combination of CAZ and compounds of the invention [20, 33]: <0.25 µg/mL
MIC ([21]; 18 h, read-out: MIC compounds of the invention alone): > 32 µg/mL
MIC, combination of CAZ and compounds of the invention [21, 33]: 0.5 µg/mL
MIC ([22]; Escherichia coli, strain UFR61O (E. coli), read-out: MIC compounds of the invention alone): 0.031 µg/mL
MIC, combination of CAZ and compounds of the invention ([22]; MIC of ceftazidime with compound fixed at 4 μg/mL, strain UFR610 (E. coli)): <0.25 µg/mL
MIC [7, 32]: > 32 µg/mL
MIC, combination of CAZ and compounds of the invention ([7]; strain 6299 (K. pneumoniae)): 0.5 µg/mL
pIC50 (TEM-1): 8.49
